Source: PubChem BioAssay (NCI)
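These data come from cells grown in 96-well plates and exposed to compound for 48 hours at five concentrations. Abbreviation: GI50, concentration required for 50% inhibition of growth. Definition used: TGI = concentration required for complete inhibition of growth.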

Assays:
Assay in all cases: growth of human tumour cells (NCI), 48 h
PC-3 prostate = tested on: PC-3 prostate
KM12 colon = tested on: KM12 colon
OVCAR-3 ovarian = tested on: OVCAR-3 ovarian
OVCAR-5 ovarian = tested on: OVCAR-5 ovarian
MOLT-4 leukemia = tested on: MOLT-4 leukemia
OVCAR-4 ovarian = tested on: OVCAR-4 ovarian
CCRF-CEM leukemia = tested on: CCRF-CEM leukemia
ACHN renal = tested on: ACHN renal
NCI-H460 lung = tested on: NCI-H460 lung
HT29 colon = tested on: HT29 colon
MALME-3M melanoma = tested on: MALME-3M melanoma
UO-31 renal = tested on: UO-31 renal
SF-268 CNS = tested on: SF-268 CNS
LOX IMVI melanoma = tested on: LOX IMVI melanoma
HS 578T breast = tested on: HS 578T breast
786-0 renal = tested on: 786-0 renal
HCC-2998 colon = tested on: HCC-2998 colon
U251 CNS = tested on: U251 CNS
HOP-62 NSCLC = tested on: HOP-62 NSCLC
SW-620 colon = tested on: SW-620 colon
T-47D breast = tested on: T-47D breast
A498 renal = tested on: A498 renal
NCI/ADR-RES ovarian = tested on: NCI/ADR-RES ovarian
SNB-75 CNS = tested on: SNB-75 CNS
SK-MEL-5 melanoma = tested on: SK-MEL-5 melanoma
SNB-19 CNS = tested on: SNB-19 CNS
HOP-92 NSCLC = tested on: HOP-92 NSCLC
IGROV1 ovarian = tested on: IGROV1 ovarian
HCT-116 colon = tested on: HCT-116 colon
HCT-15 colon = tested on: HCT-15 colon
RPMI-8226 leukemia = tested on: RPMI-8226 leukemia
A549 NSCLC = tested on: A549 NSCLC
MDA-MB-435 = tested on: MDA-MB-435
COLO 205 colon = tested on: COLO 205 colon
HL-60(TB) leukemia = tested on: HL-60(TB) leukemia
NCI-H522 lung = tested on: NCI-H522 lung
BT-549 breast = tested on: BT-549 breast
OVCAR-8 ovarian = tested on: OVCAR-8 ovarian
SK-MEL-2 melanoma = tested on: SK-MEL-2 melanoma
MDA-MB-231 breast = tested on: MDA-MB-231 breast
NCI-H226 lung = tested on: NCI-H226 lung
UACC-62 melanoma = tested on: UACC-62 melanoma
SF-295 CNS = tested on: SF-295 CNS
EKVX NSCLC = tested on: EKVX NSCLC
MCF7 breast = tested on: MCF7 breast
RXF 393 renal = tested on: RXF 393 renal
SN12C renal = tested on: SN12C renal
M14 melanoma = tested on: M14 melanoma
SR leukemia = tested on: SR leukemia
SK-OV-3 ovarian = tested on: SK-OV-3 ovarian
TK-10 renal = tested on: TK-10 renal
UACC-257 melanoma = tested on: UACC-257 melanoma
SF-539 CNS = tested on: SF-539 CNS
K-562 leukemia = tested on: K-562 leukemia
DU-145 prostate = tested on: DU-145 prostate
CAKI-1 renal = tested on: CAKI-1 renal
SK-MEL-28 melanoma = tested on: SK-MEL-28 melanoma

Question: What does the source list for COc1cc(OC)c(S(N)(=O)=O)cc1C(=O)/C=C/c1ccc(Cl)cc1?
Answer: GI50 (PC-3 prostate): 1.6 µM; TGI (PC-3 prostate): 4.25 µM; GI50 (KM12 colon): 1.82 µM; TGI (KM12 colon): 7.06 µM; GI50 (OVCAR-3 ovarian): 3.51 µM; TGI (OVCAR-3 ovarian): 17.6 µM; GI50 (OVCAR-5 ovarian): 3.18 µM; TGI (OVCAR-5 ovarian): 11.5 µM; GI50 (MOLT-4 leukemia): 2.82 µM; TGI (MOLT-4 leukemia): 13 µM; GI50 (OVCAR-4 ovarian): 3.54 µM; TGI (OVCAR-4 ovarian): 27 µM; GI50 (CCRF-CEM leukemia): 1.52 µM; TGI (CCRF-CEM leukemia): > 100 µM; GI50 (ACHN renal): 3.16 µM; TGI (ACHN renal): 11.1 µM; GI50 (NCI-H460 lung): 2.84 µM; TGI (NCI-H460 lung): 12 µM; GI50 (HT29 colon): 2.18 µM; TGI (HT29 colon): 4.66 µM; GI50 (MALME-3M melanoma): 2.79 µM; TGI (MALME-3M melanoma): 8.51 µM; GI50 (UO-31 renal): 2.36 µM; TGI (UO-31 renal): 10.3 µM; GI50 (SF-268 CNS): 3.75 µM; TGI (SF-268 CNS): 26.1 µM; GI50 (LOX IMVI melanoma): 0.733 µM; TGI (LOX IMVI melanoma): 2.51 µM; GI50 (HS 578T breast): 4.22 µM; TGI (HS 578T breast): > 100 µM; GI50 (786-0 renal): 1.9 µM; TGI (786-0 renal): 4.32 µM; GI50 (HCC-2998 colon): 2.41 µM; TGI (HCC-2998 colon): 6.12 µM; GI50 (U251 CNS): 2.18 µM; TGI (U251 CNS): 6.48 µM; GI50 (HOP-62 NSCLC): 2.58 µM; TGI (HOP-62 NSCLC): 6.59 µM; GI50 (SW-620 colon): 2.49 µM; TGI (SW-620 colon): 11.7 µM; GI50 (T-47D breast): 2.37 µM; TGI (T-47D breast): 12.4 µM; GI50 (A498 renal): 18.6 µM; TGI (A498 renal): 34 µM; GI50 (NCI/ADR-RES ovarian): 3.97 µM; TGI (NCI/ADR-RES ovarian): > 100 µM; GI50 (SNB-75 CNS): 1.5 µM; TGI (SNB-75 CNS): 3.23 µM; GI50 (SK-MEL-5 melanoma): 4.93 µM; TGI (SK-MEL-5 melanoma): 16.9 µM; GI50 (SNB-19 CNS): 3.17 µM; TGI (SNB-19 CNS): 16.7 µM; GI50 (HOP-92 NSCLC): 1.46 µM; TGI (HOP-92 NSCLC): 4.92 µM; GI50 (IGROV1 ovarian): 2.95 µM; TGI (IGROV1 ovarian): 12.3 µM; GI50 (HCT-116 colon): 0.748 µM; TGI (HCT-116 colon): 2.13 µM; GI50 (HCT-15 colon): 1.46 µM; TGI (HCT-15 colon): 10.2 µM; GI50 (RPMI-8226 leukemia): 1.86 µM; TGI (RPMI-8226 leukemia): 6.33 µM; GI50 (A549 NSCLC): 3.17 µM; TGI (A549 NSCLC): 14.2 µM; GI50 (MDA-MB-435): 2.08 µM; TGI (MDA-MB-435): 6.54 µM; GI50 (COLO 205 colon): 1.66 µM; TGI (COLO 205 colon): 3.13 µM; GI50 (HL-60(TB) leukemia): 1.91 µM; TGI (HL-60(TB) leukemia): 8.88 µM; GI50 (NCI-H522 lung): 1.63 µM; TGI (NCI-H522 lung): 3.42 µM; GI50 (BT-549 breast): 1.25 µM; TGI (BT-549 breast): 2.73 µM; GI50 (OVCAR-8 ovarian): 3.01 µM; TGI (OVCAR-8 ovarian): 14.6 µM; GI50 (SK-MEL-2 melanoma): 11.5 µM; TGI (SK-MEL-2 melanoma): 25.6 µM; GI50 (MDA-MB-231 breast): 3.92 µM; TGI (MDA-MB-231 breast): 18.9 µM; GI50 (NCI-H226 lung): 2.56 µM; TGI (NCI-H226 lung): 8.86 µM; GI50 (UACC-62 melanoma): 2.67 µM; TGI (UACC-62 melanoma): 10.6 µM; GI50 (SF-295 CNS): 3.88 µM; TGI (SF-295 CNS): 12.5 µM; GI50 (EKVX NSCLC): 3.88 µM; TGI (EKVX NSCLC): 22.3 µM; GI50 (MCF7 breast): 1.08 µM; TGI (MCF7 breast): 4.11 µM; GI50 (RXF 393 renal): 1.62 µM; TGI (RXF 393 renal): 3.34 µM; GI50 (SN12C renal): 2.48 µM; TGI (SN12C renal): 12.6 µM; GI50 (M14 melanoma): 1.47 µM; TGI (M14 melanoma): 3.14 µM; GI50 (SR leukemia): 2.11 µM; TGI (SR leukemia): 7.84 µM; GI50 (SK-OV-3 ovarian): 2.8 µM; TGI (SK-OV-3 ovarian): 8.22 µM; GI50 (TK-10 renal): 2.91 µM; TGI (TK-10 renal): 8.89 µM; GI50 (UACC-257 melanoma): 5.46 µM; TGI (UACC-257 melanoma): 22.7 µM; GI50 (SF-539 CNS): 2.14 µM; TGI (SF-539 CNS): 4.82 µM; GI50 (K-562 leukemia): 1.85 µM; TGI (K-562 leukemia): 13.6 µM; GI50 (DU-145 prostate): 3.44 µM; TGI (DU-145 prostate): 15.4 µM; GI50 (CAKI-1 renal): 1.89 µM; TGI (CAKI-1 renal): 10.5 µM; GI50 (SK-MEL-28 melanoma): 3.03 µM; TGI (SK-MEL-28 melanoma): 9.87 µM
